{"source": "patent US20070197660A1", "about": "“Compounds for modulating cell proliferation” (The Hospital for Sick Children, priority 2003, published 2007)", "type_in_all_cases": "cell-based", "key": {"NBM (BFU-E)": {"test_system": "NBM (BFU-E)", "test": "Effect upon normal bone marrow differentiation in culture (CFU-GEMM assay, BFU-E)", "conditions": "BFU-E colonies", "from_the_text": "A CFU-GEMM assay may be performed according to Fauser and Messner (1978, Blood, 52(6) 143-8) and Messner and Fausser (1980, Blut, 41(5) 327-33)."}, "Z119 cells": {"test_system": "Z119 cells", "test": "Killing of Philadelphia positive Z119 acute lymphoblastic leukemia cells in culture (colony assay)", "conditions": "168 h, Z119 Ph+ ALL cells, colonies >20 cells counted at 7 days or earlier, methylcellulose, read-out: ALL (Z 119) IC 50", "description": "Z119 cells are plated in 1 mL volumes at a density of 1×10^4 cells/mL, in the absence of exogenous growth factors, into 35 mm petri dishes (Nunc, Gibco) containing IMDM (OCI, Toronto) plus 20% FCS (Cansera Rexdale, ON) in 0.9% (vol/vol) methylcellulose (Fluka, Switzerland) with various concentrations of test compounds. Cultures are set at 37° C., 5% CO2 in a humidified atmosphere. Colonies consisting of more than 20 cells are counted at 7 days or earlier using an inverted microscope. Results see Tables 4 and 8."}, "OCI-AML-3 cells": {"test_system": "OCI-AML-3 cells", "test": "Killing of AML3 acute myeloid leukemia cells in culture (colony assay)", "conditions": "Homo sapiens, colonies >20 cells scored at 5-6 days, methylcellulose", "description": "OCI-AML-3 cells are plated in 35 mm petri dishes (Nunc, Gibco) in 1 mL volumes at a density of 3.3×10^3 cells/mL, in the absence of exogenous growth factors, containing alpha MEM plus 20% FCS (Cansera, Rexdale Ont.), and 0.9% (vol/vol) methylcellulose (Fluka, Switzerland) and various concentrations of test compounds. Cell cultures are incubated in a humidified atmosphere at 37° C. with 5% CO2. Colonies containing more than 20 cells are scored, using an inverted microscope, at 5-6 days. Results see Tables 4 and 8."}, "[1]": {"conditions": "Table 4, read-out: NBM (BFU-E) IC 50"}, "[2]": {"conditions": "Table 4, read-out: AML (OCI AML-3) IC 50"}, "[3]": {"conditions": "Table 8, read-out: NBM (BFU-E) IC 50"}, "[4]": {"conditions": "Table 8, read-out: AML (OCI AML-3) IC 50"}}, "note": "Like-named read-outs stand apart in the source and are kept apart here.", "data": [{"compound": "COCCOCCOCCOC(=O)/C(C#N)=C/C=C/c1ccc(O)c(O)c1", "note": "[CRIV-42, 2-Cyano-5-(3,4-dihydroxyphenyl)-penta-2E,4E-dienoic acid 2-[2-(2-methoxyethoxy)ethoxy]ethyl ester]", "values": [{"measurement": "IC50", "setting": "NBM (BFU-E); [1]", "result": "≥ 10", "unit": "µM"}, {"measurement": "IC50", "setting": "Z119 cells; Table 4", "result": "≥ 0.5", "unit": "µM"}, {"measurement": "IC50", "setting": "OCI-AML-3 cells; [2]", "result": 0.09, "unit": "µM"}]}, {"compound": "COc1cc(/C=C/C=C(\\C#N)C(=O)OCc2ccccc2)cc(OC)c1O", "note": "[CRIX-38, 2-Cyano-5-(4-hydroxy-3,5-dimethoxyphenyl)-penta-2E,4E-dienoic acid benzyl ester]", "values": [{"measurement": "IC50", "setting": "NBM (BFU-E); [1]", "result": "≤ 10", "unit": "µM"}, {"measurement": "IC50", "setting": "Z119 cells; Table 4", "result": "> 1", "unit": "µM"}, {"measurement": "IC50", "setting": "OCI-AML-3 cells; [2]", "result": "> 0.5", "unit": "µM"}]}, {"compound": "N#C/C(=C\\C=C\\c1ccc(O)c(O)c1)C(=O)OCc1ccccc1", "note": "[CRIX-39, 2-Cyano-5-(3,4-dihydroxyphenyl)-penta-2E,4E-dienoic acid benzyl ester]", "values": [{"measurement": "IC50", "setting": "NBM (BFU-E); [1]", "result": 8, "unit": "µM"}, {"measurement": "IC50", "setting": "Z119 cells; Table 4", "result": "≥ 0.6", "unit": "µM"}, {"measurement": "IC50", "setting": "OCI-AML-3 cells; [2]", "result": 0.09, "unit": "µM"}]}, {"compound": "N#C/C(=C\\C=C\\c1ccc(O)c(O)c1)S(=O)(=O)c1ccccc1", "note": "[CRVIII-33, 2-Benzenesulfonyl-5-(3,4-dihydroxyphenyl)-penta-2E,4E-dienenitrile]", "values": [{"measurement": "IC50", "setting": "NBM (BFU-E); [3]", "result": 12, "unit": "µM"}, {"measurement": "IC50", "setting": "Z119 cells; Table 8", "result": "≥ 0.55", "unit": "µM"}, {"measurement": "IC50", "setting": "OCI-AML-3 cells; [4]", "result": "> 0.5", "unit": "µM"}]}, {"compound": "COc1cc(/C=C/C=C(\\C#N)S(=O)(=O)c2ccccc2)cc(OC)c1O", "note": "[CRVIII-34, 2-Benzenesulfonyl-5-(4-hydroxy-3,5-dimethoxyphenyl)-penta-2E,4E-dienenitrile]", "values": [{"measurement": "IC50", "setting": "NBM (BFU-E); [3]", "result": "≤ 10", "unit": "µM"}, {"measurement": "IC50", "setting": "Z119 cells; Table 8", "result": "> 1", "unit": "µM"}, {"measurement": "IC50", "setting": "OCI-AML-3 cells; [4]", "result": "> 0.5", "unit": "µM"}]}, {"compound": "N#C/C(=C\\C=C\\c1ccc([N+](=O)[O-])cc1)S(=O)(=O)c1ccccc1", "note": "[CRVIII-35, 2-Benzenesulfonyl-5-(4-nitrophenyl)-penta-2E,4E-dienenitrile]", "values": [{"measurement": "IC50", "setting": "NBM (BFU-E); [3]", "result": "> 5", "unit": "µM"}, {"measurement": "IC50", "setting": "Z119 cells; Table 8", "result": "> 1", "unit": "µM"}, {"measurement": "IC50", "setting": "OCI-AML-3 cells; [4]", "result": "> 0.5", "unit": "µM"}]}, {"compound": "N#C/C(=C\\C=C\\c1ccc(O)c(O)c1)S(=O)(=O)c1ccccn1", "note": "[CRVIII-50, 5-(3,4-Dihydroxyphenyl)-2-(pyridine-2-sulfonyl)-penta-2E,4E-dienenitrile]", "values": [{"measurement": "IC50", "setting": "NBM (BFU-E); [3]", "result": "≤ 5", "unit": "µM"}, {"measurement": "IC50", "setting": "Z119 cells; Table 8", "result": "≥ 0.17", "unit": "µM"}, {"measurement": "IC50", "setting": "OCI-AML-3 cells; [4]", "result": "≥ 0.25", "unit": "µM"}]}, {"compound": "N#C/C(=C\\C=C\\c1ccc(O)c(O)c1)S(=O)(=O)c1ccc(Cl)cc1", "note": "[CRVIII-51, 2-(4-Chlorobenzenesulfonyl)-5-(3,4-dihydroxyphenyl)-penta-2E,4E-dienenitrile]", "values": [{"measurement": "IC50", "setting": "NBM (BFU-E); [3]", "result": "≥ 5", "unit": "µM"}, {"measurement": "IC50", "setting": "Z119 cells; Table 8", "result": 0.23, "unit": "µM"}, {"measurement": "IC50", "setting": "OCI-AML-3 cells; [4]", "result": "0.25 to 0.5", "unit": "µM"}]}, {"compound": "Cc1ccc(S(=O)(=O)/C(C#N)=C/C=C/c2ccc(O)c(O)c2)cc1", "note": "[CRVIII-52, 5-(3,4-Dihydroxyphenyl)-2-(toluene-4-sulfonyl)-penta-2E,4E-dienenitrile]", "values": [{"measurement": "IC50", "setting": "NBM (BFU-E); [3]", "result": "≤ 10", "unit": "µM"}, {"measurement": "IC50", "setting": "Z119 cells; Table 8", "result": "0.25 to 0.5", "unit": "µM"}, {"measurement": "IC50", "setting": "OCI-AML-3 cells; [4]", "result": "0.25 to 0.5", "unit": "µM"}]}, {"compound": "CS(=O)(=O)/C(C#N)=C/C=C/c1ccc(O)c(O)c1", "note": "[CRVIII-53, 5-(3,4-Dihydroxyphenyl)-2-methanesulfonyl-penta-2E,4E-dienenitrile]", "values": [{"measurement": "IC50", "setting": "NBM (BFU-E); [3]", "result": "≤ 10", "unit": "µM"}, {"measurement": "IC50", "setting": "Z119 cells; Table 8", "result": 0.45, "unit": "µM"}, {"measurement": "IC50", "setting": "OCI-AML-3 cells; [4]", "result": "0.25 to 0.5", "unit": "µM"}]}, {"compound": "COCCOCCOCCOC(=O)/C(C#N)=C/C=C/c1cc(OC)c(O)c(OC)c1", "note": "[GRIV-46, 2-Cyano-5-(4-hydroxy-3,5-dimethoxyphenyl)-penta-2E,4E-dienoic acid 2-[2-(2-methoxyethoxy)ethoxy]ethyl ester]", "values": [{"measurement": "IC50", "setting": "NBM (BFU-E); [1]", "result": "≥ 10", "unit": "µM"}, {"measurement": "IC50", "setting": "Z119 cells; Table 4", "result": "> 0.5", "unit": "µM"}, {"measurement": "IC50", "setting": "OCI-AML-3 cells; [2]", "result": "≥ 0.5", "unit": "µM"}]}]}
